A short description of assay [1]: ITC of phospholipid liposomes with calcium. It is filed as binding. To be noted: liposome with POPC 80:20, 25° C., unlike POPS. The procedure: Particularly, a protein solution was prepared by suspending a protein in 10 mM HEPES (pH 7.0). Phospholipid related ligand was titrated in the protein solution at 25° C. by using iTC200 micro calorimetry system (MicroCal Inc., USA), and the generated graph was corrected using Origin software (MicroCal Inc., USA). At this time, the phospholipid related ligand was prepared in the form of liposome by mixing POPC (1-palmitoyl-2-oleoyl-sn-glycero-3-phosphocholin) chloroform solution and POPS (1-palmitoyl-2-oleoyl-sn-glycero-3-phosphoserine), PI(3,4)P2 (1,2-dipalmotoyl-sn-glycero-3-phosphatidylinositol-3,4-[…]), PI(4,5)P2 (1,2-dipalmotoyl-sn-glycero-3-phosphatidylinositol-4,5-trisphosphate) or PI(3,4,5)P3 (1,2-dipalmotoyl-sn-glycero-3-phosphatidylinositol-3,4,5-trisphosphate) at the molar ratio of 80:20. The organic solvent was eliminated. The organic solvent was removed and a single layer lamellar was produced in HEPES (pH 7.0) using phospholipids.

The test system of assay [2] is Akt protein. The assay is described as follows: Western blotting of Akt protein phosphorylation in insulin-treated HepG2 cells. Format: cell-based, human. As to conditions: PMA 0, 10, 50 or 100 nM or ionomycin 0, 1, 5, 10 or 20 μM, 100 nM insulin, dose-dependent. Here is the method: First, male C57BL/6 mice at 8 weeks were divided into the fasted group wherein the mice were fasted for 16 hours and the refed group wherein the mice were fasted for 16 hours and then fed for 4 hours. Each group was sub-divided into the high fat diet group (HFD) and the normal diet group (chow). The liver cells were extracted from the raised mice by the same manner and under the same conditions as described in Example 1. The extracted liver cells were lysed in a lysis buffer containing phosphatase (Sigma-Aldrich, USA) and protease inhibitor (Sigma-Aldrich, USA). Proteins extracted from 2 to 3 mg of the liver tissue were homogenized by using a tissue homogenizer (TissuLyser, Qiagen, USA) for 1.5 minutes at a frequency of 1/30 sec. The homogenized lysate was centrifuged at 12,000 rpm for 15 minutes and the supernatant was obtained. The amount of the extracted protein was quantified by using a protein assay kit (Bio-Rad Laboratories, USA), and at this time BSA was used as a standard sample. 3 mg of the protein was mixed with 6× loading buffer, followed by electrophoresis using 10% SDS-PAGE gel. The electrophoresed protein was transferred onto a polyvinylidene fluoride (PVDF) membrane by using a transfer buffer at 4° C. with 120 V for 1.5 hours. The PVDF membrane on which the protein was transferred was pretreated with a blocking buffer prepared by mixing 5% skim milk with TBS buffer (TBS-T, pH 7.6) supplemented with Tween 20 for 30 minutes, and the membrane was washed with TBS-T. The washed membrane was added with the antibody against Akt (Cell Signaling Technology, USA), Akt(T308) (Cell Signaling Technology, USA), Akt(S473) (Cell Signaling Technology, USA), FOXO3A (Cell Signaling Technology, USA), FOXO3A(S253) (Cell Signaling Technology, USA), GSK-3β (Cell Signaling Technology, USA) or GSK-3β(S9) (Cell Signaling Technology, USA) protein as a primary antibody, followed by reaction at 4° C. for 12 hours. At this time, the antibody against actin (Santa Cruz Biotechnology, USA) protein was used for the control group. Upon completion of the reaction, the secondary antibody corresponding to the primary antibody was added thereto, followed by reaction at room temperature for 30 minutes. The PVDF membrane was washed with TBS-T buffer three times. The washed PVDF membrane was added with ECL solution (Thermo Scientific, USA), followed by image observation.
To investigate the changes in insulin sensitivity when insulin was added to the fatty liver cell model constructed in vitro, the phosphorylations of those proteins that were involved in insulin signal transduction were examined. PA was added to the human HepG2 cells prepared in Example 3, followed by reaction for 24 hours. […]
On the technique in general: A western blot detects proteins with antibodies after separation by electrophoresis.

The test system of assay [3] is Akt protein. The assay is described as follows: Western blot of Akt activity with C2-Akt fusion protein and PI3K co-treated with PTEN or SHIP2. It is filed as cell-based. To be noted: cells with C2-Akt fusion protein and PI3K vectors co-treated with PTEN or SHIP2. The procedure: Particularly, the experiment was performed by the same manner under the same conditions as described in Example 2 except that the vector expressing the C2-Akt fusion protein and the vector expressing PI3K protein were co-treated with PTEN or SHIP2 and the antibody against Akt (Cell Signaling Technology, USA), Akt(T308) (Cell Signaling Technology, USA), Akt(S473) (Cell Signaling Technology, USA), PI3K (Cell Signaling Technology, USA), PTEN (Cell Signaling Technology, USA) or SHIP2 (Upstate Biotechnology, USA) protein was used as the primary antibody.

For the next assay, the target named is T1, PH domain of Akt protein (Homo sapiens, UniProt P31749).
T1 construct: His6 (C); made in house; host or cells: E. coli BL21 (DE3), pET28a vector
In words: Protein-lipid binding assay (PIP-strips) with PH domain of Akt protein. The procedure:
E. coli BL21 (DE3) cells were transfected with a vector containing the PH domain of Akt protein, and the cells were cultured in 50 Ml of LB medium supplemented with 50 μg/Ml of kanamycin. The culture was performed at 37° C. for 8 hours. Upon completion of the culture, the cells were transferred into a 25° C. agitation incubator. The cells were cultured until OD600 reached 0.6 to 1.0, and then 1 mM IPTG (isopropyl-β-D-1-thiogalactopyranoside) was added thereto. 18 hours after the addition of IPTG, centrifugation was performed at 7,000×g at 4° C. for 10 minutes to obtain cells. Sonication equilibrium buffer (150 mM NaCl, 50 mM Tris-HCl, pH 7.6) was added to the obtained cells. The cells added with the sonication equilibrium buffer were lysed by sonication. The PH domain of Akt protein was purified from the cell lysate by […] using nickel-nitrilotriacetic acid and HiLoad Superdex-200 column (GE Healthcare life science, USA). The purity of the purified protein was examined by SDS-PAGE (sodium dodecyl sulfate polyacrylamide gel electrophoresis).
Particularly, the analysis was performed by using membrane-immobilized lipid strips (PIP-strips, Echelon Biosciences Inc., USA). […]

The next assay has as its system CHO cells. In words: Migration of mCherry-tagged PH or C2 domain to the cell membrane, fluorescence microscopy. Format: cell-based. The text has this: First, the PH domain of Akt1 protein or C2 domain of PKCβ protein was obtained by PCR using the primers consisting of the nucleotide sequences represented by […]. The obtained PCR product was cloned in pmCherry-C1 vector (Takara Clontech, Japan) by the conventional cloning method. CHO cells were transfected with the prepared vector by using lipofectamine according to the manufacturer's protocol. The transfected cells were selected by using blastidicin. Then, mCherry positive cells were confirmed by flow cytometry.
PMA at the concentration of 100 nM, ionomycin at the concentration of 10 μM or insulin at the concentration of 100 nM was added to the cells expressing the PH domain of Akt1 protein or the C2 domain of PKCβ protein and the location of the expressed protein was confirmed by fluorescence microscopy.

Entries after “also recorded” stand apart in the source; their conditions may differ.

The text below walks through data of US11726082B2, “Screening method of drug candidates for treating disease using interaction between calcium and phosphatidylinositol phosphate” (Gachon University of Industry—Academic Cooperation …, priority 2017, dated 2023).

`CCCCCCCCCCCCCCCC(=O)OCC(COP(=O)(O)OC1C(O)C(O)C(OP(=O)(O)O)C(OP(=O)(O)O)C1O)OC(=O)CCCCCCCCCCCCCCC` (stereo not drawn) [PI(3,4)P2, 1,2-dipalmotoyl-sn-glycero-3-phosphatidylinositol-3,4-triphosphate]: the binding to calcium result in assay [1] is listed as “high affinity; also recorded: strong binding force”.
Still for that read-out and setting: the value for `CCCCCCCCCCCCCCCC(=O)OCC(COP(=O)(O)OC1C(O)C(OP(=O)(O)O)C(OP(=O)(O)O)C(OP(=O)(O)O)C1O)OC(=O)CCCCCCCCCCCCCCC` (stereo not drawn) [PI(3,4,5)P3, 1,2-dipalmotoyl-sn-glycero-3-phosphatidylinositol-3,4,5-trisphosphate] was “high affinity; also recorded: strong binding force”.
On to `CCCCCCCCCCCCCCCC(=O)OCC(COP(=O)(O)OC1C(O)C(O)C(OP(=O)(O)O)C(OP(=O)(O)O)C1O)OC(=O)CCCCCCCCCCCCCCC` (stereo not drawn) [PI(4,5)P2, 1,2-dipalmotoyl-sn-glycero-3-phosphatidylinositol-4,5-trisphosphate], for which the binding to calcium entry in assay [1] is on record as “high affinity; also recorded: strong binding force”.
Turning to `CCCCCCCCCCCCCC(=O)O[C@@H]1[C@@H](C)[C@@]2(O)[C@@H](C=C(CO)C[C@]3(O)C(=O)C(C)=C[C@@H]23)[C@@H]2C(C)(C)[C@]12OC(C)=O` [PMA, phorbol myristate acetate], in the assay with Akt protein [2], the “phosphorylation of Akt protein” value is “significantly inhibited”.
The same measure, in the same setting: the value for `C[C@H](CCC(=O)O)C[C@H](C)C[C@H](C)C(=O)/C=C(\O)[C@H](C)C[C@H](C)C/C=C/[C@@H](C)[C@@H](O)[C@@H](C)[C@@H](O)C[C@@H]1CC[C@@](C)([C@H]2CC[C@@](C)([C@@H](C)O)O2)O1` [ionomycin] was “significantly inhibited”.
Turning to “PTEN: phosphatase and tensin homolog, co-treated”, the Akt protein activity entry with Akt protein [3] was “reduced”.

B1: PH domain of Akt protein: PH domain of Akt1 protein (SEQ. ID. NO: 13) (protein)
chain: MSDVAIVKEGWLHKRGEYIKTWRPRYFLLKNDGTFIGYKERPQDVDQREAPLNNFSVAQCQLMKTERPRPNTFIIRCLQWTTVIERTFHVETPEEREEWTTAIQTVADGLKKQEEEEMDFRSGSPSDNSGAEEMEVSLAKPKHR
modifications: PH domain of Akt protein
Take B1: the “binding to PI(3,4)P2 or PI(3,4,5)P3” value with PH domain of Akt protein is reported as “bound”. In addition, the “migration to the cell membrane” value in the assay on CHO cells (addition of insulin 100 nM) was “ted to the cell membrane”; with CHO cells (increased intracellular calcium concentration (PMA 100 nM, ionomycin 10 μM)) it was “not observed; also recorded: inhibited”.
